Where two headings read alike, the source gives them in different places.
Key:
[1] = biological target: T1, pantothenate kinase (PanK, Cab1) (Saccharomyces cerevisiae, UniProt Q04430); assay: radiometric PanK assay with D-[[…]-14C]pantothenate, partially purified enzyme; type: biochemical
T1 construct: wild-type Cab1 expressed from pSBS5 in yeast strain JS91.14-24, partially purified on DEAE sepharose
T1 sequence (Q04430 1-367): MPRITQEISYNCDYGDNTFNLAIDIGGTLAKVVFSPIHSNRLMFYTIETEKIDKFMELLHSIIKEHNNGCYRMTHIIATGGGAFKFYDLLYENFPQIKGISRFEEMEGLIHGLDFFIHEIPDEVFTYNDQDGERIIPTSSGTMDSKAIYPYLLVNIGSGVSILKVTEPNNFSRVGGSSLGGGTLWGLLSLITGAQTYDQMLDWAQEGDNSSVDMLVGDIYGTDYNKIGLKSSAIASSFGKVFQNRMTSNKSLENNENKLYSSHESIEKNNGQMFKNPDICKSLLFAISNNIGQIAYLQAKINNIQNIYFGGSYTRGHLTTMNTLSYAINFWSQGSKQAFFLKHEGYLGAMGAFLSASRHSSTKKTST

[2] = biological target: T2, pantothenate kinase PanK3 (murine) (Mus musculus, UniProt Q8R2W9); assay: as above; type: biochemical
T2 construct: murine wild-type PanK3 expressed from pJO73 in yeast strain JS91.14-24, partially purified on DEAE sepharose
T2 sequence (Q8R2W9 1-370): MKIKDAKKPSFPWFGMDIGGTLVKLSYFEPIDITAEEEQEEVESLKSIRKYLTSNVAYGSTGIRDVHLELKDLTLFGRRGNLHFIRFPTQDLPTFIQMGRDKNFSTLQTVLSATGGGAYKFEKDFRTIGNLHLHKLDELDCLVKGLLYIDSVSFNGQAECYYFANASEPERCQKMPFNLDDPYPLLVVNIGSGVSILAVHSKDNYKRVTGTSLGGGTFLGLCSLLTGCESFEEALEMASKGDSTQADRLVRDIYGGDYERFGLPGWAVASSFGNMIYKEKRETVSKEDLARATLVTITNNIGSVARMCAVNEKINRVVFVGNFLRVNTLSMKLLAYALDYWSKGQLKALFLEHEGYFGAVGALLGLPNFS

Structure (SMILES)	IC50 ([1]; read-out: IC50) [µM]	IC50 [1] [µM]	IC50 [2] [µM]
CC(C)(COP(=O)(O)OP(=O)(O)OC[C@H]1O[C@@H](n2cnc3c(N)ncnc32)[C@H](O)[C@@H]1OP(=O)(O)O)[C@@H](O)C(=O)NCCC(=O)NCCS [Coenzyme A]	283	–	–
CC(=O)SCCNC(=O)CCNC(=O)[C@H](O)C(C)(C)COP(=O)(O)OP(=O)(O)OC[C@H]1O[C@@H](n2cnc3c(N)ncnc32)[C@H](O)[C@@H]1OP(=O)(O)O [acetyl-CoA]	–	36	1
CCCCCCCCCCCCCCCC(=O)SCCNC(=O)CCNC(=O)[C@H](O)C(C)(C)COP(=O)(O)OP(=O)(O)OC[C@H]1O[C@@H](n2cnc3c(N)ncnc32)[C@H](O)[C@@H]1OP(=O)(O)O [palmitoyl-CoA]	891	–	–
CC(C)(COP(=O)(O)OP(=O)(O)OC[C@H]1O[C@@H](n2cnc3c(N)ncnc32)[C@H](O)[C@@H]1OP(=O)(O)O)[C@@H](O)C(=O)NCCC(=O)NCCSC(=O)CC(=O)O [malonyl-CoA]	–	812	–

From PMC8494682 (Applied Microbiology and Biotechnology, 2021)
